Measured values as given in paper PMC10504751, “Chalcone/1,3,4-Oxadiazole/Benzimidazole hybrids as novel anti-proliferative agents inducing apoptosis and inhibiting EGFR & BRAFV^600E” (BMC Chemistry, 2023).

What was measured:
[1] = test system: HOP-92; experiment: NCI one-dose SRB anti-proliferative screen; assay type: cell-based; conditions: Homo sapiens; HOP-92 (Non-Small Cell Lung Cancer), NCI one dose 10 µM; read-out: Cell growth inhibition %
Method in brief: (§1)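 Read-out: sulforhodamine B protein stain measured colorimetrically after exposure of the cells to test compound at 10 µM. This line formed one member of a 60-line panel spanning lung, leukaemia, melanoma, colon, renal, CNS, prostate, breast and ovarian origins.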

[2] = test system: SNB-19; experiment: NCI one-dose SRB anti-proliferative screen; assay type: cell-based; conditions: Homo sapiens; SNB-19 (CNS Cancer), NCI one dose 10 µM; read-out: Cell growth inhibition %
Method in brief: as §1

[3] = test system: MDA-MB-231/ATCC; experiment: NCI one-dose SRB anti-proliferative screen; assay type: cell-based; conditions: Homo sapiens; MDA-MB-231/ATCC (Breast Cancer), NCI one dose 10 µM; read-out: Cell growth inhibition %
Method in brief: as §1

[4] = test system: U251; experiment: NCI one-dose SRB anti-proliferative screen; assay type: cell-based; conditions: Homo sapiens, U-251; U251 (CNS Cancer), NCI one dose 10 µM; read-out: Cell growth inhibition %
Method in brief: as §1

[5] = test system: SW-620; experiment: NCI one-dose SRB anti-proliferative screen; assay type: cell-based; conditions: Homo sapiens; SW-620 (Colon Cancer), NCI one dose 10 µM; read-out: Cell growth inhibition %
Method in brief: as §1

[6] = test system: UO-31; experiment: NCI one-dose SRB anti-proliferative screen; assay type: cell-based; conditions: Homo sapiens; UO-31 (Renal Cancer), NCI one dose 10 µM; read-out: Cell growth inhibition %
Method in brief: as §1

[7] = test system: HOP-62; experiment: NCI one-dose SRB anti-proliferative screen; assay type: cell-based; conditions: Homo sapiens; HOP-62 (Non-Small Cell Lung Cancer), NCI one dose 10 µM; read-out: Cell growth inhibition %
Method in brief: as §1

[8] = test system: M14; experiment: NCI one-dose SRB anti-proliferative screen; assay type: cell-based; conditions: Homo sapiens; M14 (Melanoma), NCI one dose 10 µM; read-out: Cell growth inhibition %
Method in brief: as §1

[9] = test system: OVCAR-5; experiment: NCI one-dose SRB anti-proliferative screen; assay type: cell-based; conditions: Homo sapiens; OVCAR-5 (Ovarian Cancer), NCI one dose 10 µM; read-out: Cell growth inhibition %
Method in brief: as §1

[10] = test system: SR; experiment: NCI one-dose SRB anti-proliferative screen; assay type: cell-based; conditions: Homo sapiens; SR (Leukemia), NCI one dose 10 µM; read-out: Cell growth inhibition %
Method in brief: as §1

[11] = test system: HT29; experiment: NCI one-dose SRB anti-proliferative screen; assay type: cell-based; conditions: Homo sapiens, HT-29; HT29 (Colon Cancer), NCI one dose 10 µM; read-out: Cell growth inhibition %
Method in brief: as §1

[12] = test system: SF-539; experiment: NCI one-dose SRB anti-proliferative screen; assay type: cell-based; conditions: Homo sapiens; SF-539 (CNS Cancer), NCI one dose 10 µM; read-out: Cell growth inhibition %
Method in brief: as §1

[13] = test system: A498; experiment: NCI one-dose SRB anti-proliferative screen; assay type: cell-based; conditions: Homo sapiens; A498 (Renal Cancer), NCI one dose 10 µM; read-out: Cell growth inhibition %
Method in brief: as §1

[14] = test system: OVCAR-8; experiment: NCI one-dose SRB anti-proliferative screen; assay type: cell-based; conditions: Homo sapiens; OVCAR-8 (Ovarian Cancer), NCI one dose 10 µM; read-out: Cell growth inhibition %
Method in brief: as §1

[15] = test system: OVCAR-4; experiment: NCI one-dose SRB anti-proliferative screen; assay type: cell-based; conditions: Homo sapiens; OVCAR-4 (Ovarian Cancer), NCI one dose 10 µM; read-out: Cell growth inhibition %
Method in brief: as §1

[16] = test system: SK-MEL-2; experiment: NCI one-dose SRB anti-proliferative screen; assay type: cell-based; conditions: Homo sapiens; SK-MEL-2 (Melanoma), NCI one dose 10 µM; read-out: Cell growth inhibition %
Method in brief: as §1

[17] = test system: NCI-H322M; experiment: NCI one-dose SRB anti-proliferative screen; assay type: cell-based; conditions: Homo sapiens; NCI-H322M (Non-Small Cell Lung Cancer), NCI one dose 10 µM; read-out: Cell growth inhibition %
Method in brief: as §1

[18] = test system: MDA-MB-435; experiment: NCI one-dose SRB anti-proliferative screen; assay type: cell-based; conditions: Homo sapiens; MDA-MB-435 (Melanoma), NCI one dose 10 µM; read-out: Cell growth inhibition %
Method in brief: as §1

[19] = test system: NCI/ADR-RES; experiment: NCI one-dose SRB anti-proliferative screen; assay type: cell-based; conditions: Homo sapiens; NCI/ADR-RES (Ovarian Cancer), NCI one dose 10 µM; read-out: Cell growth inhibition %
Method in brief: as §1

[20] = test system: NCI-H460; experiment: NCI one-dose SRB anti-proliferative screen; assay type: cell-based; conditions: Homo sapiens; NCI-H460 (Non-Small Cell Lung Cancer), NCI one dose 10 µM; read-out: Cell growth inhibition %
Method in brief: as §1

[21] = test system: HL-60(TB); experiment: NCI one-dose SRB anti-proliferative screen; assay type: cell-based; conditions: Homo sapiens; HL-60(TB) (Leukemia), NCI one dose 10 µM; read-out: Cell growth inhibition %
Method in brief: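 Activity reflects a single-point exposure at 10 µM, with cell mass determined by a sulforhodamine B dye assay.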

[22] = test system: TK-10; experiment: NCI one-dose SRB anti-proliferative screen; assay type: cell-based; conditions: Homo sapiens; TK-10 (Renal Cancer), NCI one dose 10 µM; read-out: Cell growth inhibition %
Method in brief: as §1

[23] = test system: BT-549; experiment: NCI one-dose SRB anti-proliferative screen; assay type: cell-based; conditions: Homo sapiens; BT-549 (Breast Cancer), NCI one dose 10 µM; read-out: Cell growth inhibition %
Method in brief: as §1

[24] = test system: HCT-15; experiment: NCI one-dose SRB anti-proliferative screen; assay type: cell-based; conditions: Homo sapiens; HCT-15 (Colon Cancer), NCI one dose 10 µM; read-out: Cell growth inhibition %
Method in brief: as §1

Compound | melting point [°C] | inhibition at 10 µM [1] [%] | inhibition at 10 µM [2] [%] | inhibition at 10 µM [3] [%] | inhibition at 10 µM [4] [%] | inhibition at 10 µM [5] [%] | inhibition at 10 µM [6] [%] | inhibition at 10 µM [7] [%] | inhibition at 10 µM [8] [%] | inhibition at 10 µM [9] [%] | inhibition at 10 µM [10] [%] | inhibition at 10 µM [11] [%] | inhibition at 10 µM [12] [%] | inhibition at 10 µM [13] [%] | inhibition at 10 µM [14] [%] | inhibition at 10 µM [15] [%] | inhibition at 10 µM [16] [%] | inhibition at 10 µM [17] [%] | inhibition at 10 µM [18] [%] | inhibition at 10 µM [19] [%] | also measured
O=C(CSc1nnc(-c2ccc3[nH]c(-c4ccc(Cl)cc4)nc3c2)o1)Nc1ccc(C(=O)/C=C/c2ccccc2)cc1 [Compound 7f, 2-{5-[2-(4-Chlorophenyl)-1 H-benzo[d]imidazol-5-yl]-1,3,4-oxadiazol-2-ylthio}-N-{4-[(E)-3-phenylacryloyl]phenyl}acetamide] | 161 to 163 | 0 | 0 | 2.18 | 3.23 | 0 | 12.2 | 0 | 0 | 0 | 15.2 | 0 | 2.1 | 0 | 0 | 0 | 0 | 0 | 0 | 0 | inhibition at 10 µM [20]: 0%; inhibition at 10 µM [21]: 0%; inhibition at 10 µM [22]: 0%; inhibition at 10 µM [23]: 0%; inhibition at 10 µM [24]: 0%
O=C(CSc1nnc(-c2ccc3[nH]c(-c4ccc(Cl)cc4)nc3c2)o1)Nc1ccc(C(=O)/C=C/c2ccc(Cl)cc2)cc1 [Compound 7g, 2-{5-[2-(4-Chlorophenyl)-1 H-benzo[d]imidazol-5-yl]-1,3,4-oxadiazol-2-ylthio}-N-{4-[(E)-3-(4-chlorophenyl)acryloyl]phenyl}acetamide] | 215 to 217 | 5.81 | 0.54 | 9.38 | 17.8 | 0 | 24.7 | 2.12 | 0 | 0 | 50.2 | 0 | 15.7 | 9.85 | 2.88 | 0 | 0 | 4.64 | 0.11 | 0 | inhibition at 10 µM [20]: 0%; inhibition at 10 µM [21]: 14%; inhibition at 10 µM [22]: 0%; inhibition at 10 µM [23]: 0.37%; inhibition at 10 µM [24]: 10.2%
